For this experiment, the system named is LG0567-F671-PDC KRAS tumor spheroid viability. Nature of the experiment: Anticancer human tumor LG0567-F671-PDC patient-derived lung adenocarcinoma cell line growth inhibition [KRAS2]. Conditions: spheroids with HUVEC and MSC; for IC50: curve of first compound; for viability, T/C: stronger effect = lower value. An excerpt:
Multicellular complex tumor spheroid response to RAS pathway inhibitors in combination with a targeted agents in patient-derived cell lines with oncogenic KRAS variants from multiple cancer types
A high-throughput screen of multi-cell type tumor spheroids was designed to identify active combinations of targeted small molecules and KRAS pathway inhibitors. Complex spheroids include a stromal component modeled by human endothelial cells (HUVEC) and fibroblasts modeled by human mesenchymal stem cells (MSCs). The concentration ranges selected for each drug and investigational agent were based upon clinically achievable concentrations if the clinical Cmax of the agent was known.
Compounds. The drugs and investigational agents: BI-3406 (NSC825286), BAY-293 (NSC824723), batoprotafib (TNO155; NSC825523), sotorasib (AMG 510; NSC818433), MRTX1257 (NSC819558), elimusertib (BAY 1895344; NSC800525), molibresib (GSK525762; NSC774829), temuterkib (LY3214996; NSC803410), venetoclax (NSC766270), alisertib (NSC759677), olaparib (NSC753686), talazoparib (NSC767125), erdafitinib (NSC781556), ipatasertib (NSC767898), cabozantinib (NSC761068), nintedanib (NSC756659), abemaciclib (NSC768073), docetaxel (NSC628503), trametinib (NSC758246), and sapanisertib (NSC764658) were obtained from the National Cancer Institute (NCI) Developmental Therapeutics Program Chemical Repository. The FDA-approved anticancer drug set is available from the Developmental Therapeutics Program. […] The stock solutions were prepared in dimethyl sulfoxide (DMSO, Sigma-Aldrich, St. Louis, MO, cat. D2650) at 800-fold the tested concentration and stored at -70 degrees C prior to their use. All drugs and investigational agents were tested over a range starting from a high concentration at or near the clinical Cmax and decreasing in half-log increments. If the clinical Cmax for an agent had not been determined, the highest concentration tested was 10 microM.
Cell Culture. All cells were maintained in an incubator at 37 degrees C and 5% CO2 with 95% humidity. The PDC lines were cultured according to standard operating procedures established by the NCI PDMR (https://pdmr.cancer.gov/sops/default.htm). Briefly, all PDCs were thawed and cultured in Matrigel-coated flasks prepared with a working solution of 1X Ham's F-12 nutrient mix, without supplementation (Invitrogen, Waltham, MA, cat. 11765054), 100 U/mL penicillin-streptomycin (Invitrogen, cat. 15140122), and 2.5% Matrigel (Corning Inc., Corning, NY, cat. 354248) for the first three passages. All PDCs were cultured in complete DMEM/F-12 media containing advanced DMEM/F-12 (Invitrogen, cat. 12634028), 4.9% defined fetal bovine serum, heat inactivated (HyClone Laboratories Inc., Logan, UT, cat. SH30070.03HI), 389 ng/mL hydrocortisone (Sigma-Aldrich, cat. H4001), 9.7 ng/mL human EGF recombinant protein (Invitrogen, cat. PHG0313), 23.4 microg/mL adenine (Sigma-Aldrich, cat. A2786), 97.3 U/mL penicillin-streptomycin (Invitrogen, cat. 15140122), 1.9 mM L-glutamine (Invitrogen, cat. 25030081), and 9.7 microM Y-27632 dihydrochloride (Tocris Bioscience, Bristol, United Kingdom, cat. 1254). The PDCs were cultured in complete DMEM/F12 media without 9.7 microM Y-27632 dihydrochloride for at least two passages prior to the screen. The established cell line HOP-62 was cultured in RPMI 1640 medium, HEPES (Invitrogen, cat. 22400105) with 10% defined fetal bovine serum (HyClone Laboratories Inc., cat. SH30070.03) and 2 mM L-glutamine (Invitrogen, cat. 25030081). The pooled donor HUVEC were cultured in endothelial cell growth medium 2 (PromoCell, Heidelberg, Germany, cat. C-22011) and the hMSC were cultured in mesenchymal stem cell growth medium 2 (PromoCell, cat. C-28009). For all experiments, HUVEC and hMSC were used at passages </=5, while the malignant cell lines were used at passages </=15. […]

Where [1] appears, read: second compound 0.1 µM, first compound 0.0316 µM.
Where [2] appears, read: second compound 0.1 µM, first compound 0.1 µM.
Setting [3] is: second compound 0.1 µM, first compound 0.316 µM.
[4] abbreviates: second compound 0.1 µM, first compound 1 µM.
Setting [5] is: second compound 0.1 µM, first compound 3.16 µM.
Where [6] appears, read: second compound 0.1 µM, first compound 10 µM.
Where [7] appears, read: second compound 0.316 µM, first compound 0.0316 µM.
Where [8] appears, read: second compound 0.316 µM, first compound 0.1 µM.
Where [9] appears, read: second compound 0.316 µM, first compound 0.316 µM.
[10] abbreviates: second compound 0.316 µM, first compound 1 µM.
Setting [11] is: second compound 0.316 µM, first compound 3.16 µM.
Setting [12] is: second compound 0.316 µM, first compound 10 µM.
Where [13] appears, read: second compound 1 µM, first compound 0.0316 µM.
[14] abbreviates: second compound 1 µM, first compound 0.1 µM.
Where [15] appears, read: second compound 1 µM, first compound 0.316 µM.
[16] abbreviates: second compound 1 µM, first compound 1 µM.
Where [17] appears, read: second compound 1 µM, first compound 3.16 µM.
The mark [18] stands for this setting: second compound 1 µM, first compound 10 µM.
[19] abbreviates: second compound 3.16 µM, first compound 0.0316 µM.
[20] abbreviates: second compound 3.16 µM, first compound 0.1 µM.
[21] abbreviates: second compound 3.16 µM, first compound 0.316 µM.
Where [22] appears, read: second compound 3.16 µM, first compound 1 µM.
Setting [23] is: second compound 3.16 µM, first compound 3.16 µM.
[24] abbreviates: second compound 3.16 µM, first compound 10 µM.

Drawing on PubChem BioAssay AID1963856 (Molecular Pharmacology Branch, DTP, NCI, 2024), this text covers IC50 and viability, T/C for three molecules.

The term IC50 denotes the midpoint of a concentration-inhibition curve. For orientation: viability, T/C means the result in the treated group divided by that in the control group, in per cent.
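Also: drug exposure lasted seven days after spheroids formed for three days.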

For the molecule `COc1cc2nccc(Oc3ccc(NC(=O)C4(C(=O)Nc5ccc(F)cc5)CC4)cc3)c2cc1OC` + C=CC(=O)N1CCN(c2nc(OCC3CCCN3C)nc3c2CCN(c2cccc4cccc(C)c24)C3)CC1CC#N, the IC50 (second compound 0.0316 µM) is under 0.0316 µM; the IC50 (second compound 0.1 µM) is under 0.0316 µM; the 50% inhibitory concentration (IC50) (second compound 0.316 µM) was under 0.0316 µM; the IC50 (second compound 1 µM) is under 0.0316 µM; the 50% inhibitory concentration (IC50) (second compound 3.16 µM) was under 0.0316 µM. For the same molecule, the viability, T/C is 27% (second compound 0.0316 µM, first compound 0.0316 µM); 35.9% (second compound 0.0316 µM, first compound 0.1 µM); 23.9% (second compound 0.0316 µM, first compound 0.316 µM); 20.4% (second compound 0.0316 µM, first compound 1 µM); 17.8% (second compound 0.0316 µM, first compound 3.16 µM); 52.5% (second compound 0.0316 µM, first compound 10 µM). In addition, the viability, T/C reads like this: under setting [1], 23.5%; under setting [2], 22.9%; under setting [3], 26.6%; under setting [4], 18.4%; under setting [5], 10.2%; under setting [6], 45.3%. Besides, the viability, T/C by setting is: under setting [7], 25.2%; under setting [8], 24.8%; under setting [9], 28.4%; under setting [10], 17.2%; under setting [11], 10.2%; under setting [12], 41.3%. Besides, the viability, T/C runs as follows: under setting [13], 30.9%; under setting [14], 27.6%; under setting [15], 23.7%; under setting [16], 20.9%; under setting [17], 13.3%; under setting [18], 33%. Moreover, the viability, T/C by setting is: under setting [19], 13.2%; under setting [20], 18.7%; under setting [21], 11.4%; under setting [22], 17.6%; under setting [23], 1.46%; under setting [24], 1.76%.
As to `CC1COCCN1c1cc(-c2ccnn2C)c2ccnc(-c3ccn[nH]3)c2n1` (configuration not stated), the viability, T/C reads like this: (compound 0.01 µM) 101% [middle of 5 runs]; (compound 0.316 µM) 74% [middle of 5 runs].
Consider `CCNC(=O)CC1N=C(c2ccc(Cl)cc2)c2cc(OC)ccc2-n2c(C)nnc21` (configuration not stated) + COc1cc2nc(C)nc(NC(C)c3cc(N)cc(C(F)(F)F)c3)c2cc1OC1CCOC1, for which the IC50 reads like this: (second compound 0.1 µM) 0.41 µM; (second compound 0.316 µM) 0.411 µM; (second compound 1 µM) 0.403 µM; (second compound 3.16 µM) 0.319 µM; (second compound 10 µM) 0.224 µM. For the same molecule, the viability, T/C reads like this: under setting [1], 97%; under setting [2], 82.3%; under setting [3], 61.6%; under setting [4], 17.1%; under setting [5], 8.29%; under setting [6], 5.17%. The viability, T/C is, setting by setting: under setting [7], 109%; under setting [8], 96.5%; under setting [9], 62.3%; under setting [10], 10%; under setting [11], 8.83%; under setting [12], 7.95%. Further, the viability, T/C by setting is: under setting [13], 84.6%; under setting [14], 87.8%; under setting [15], 60.9%; under setting [16], 9.34%; under setting [17], 7.07%; under setting [18], 8.48%. Further, the viability, T/C was 78.9% under setting [19]; 69.9% under setting [20]; 50.8% under setting [21]; 9.17% under setting [22]; 6.95% under setting [23]; 10.1% under setting [24]. In addition, the viability, T/C was 74.5% (second compound 10 µM, first compound 0.0316 µM); 59.8% (second compound 10 µM, first compound 0.1 µM); 47.5% (second compound 10 µM, first compound 0.316 µM); 20.6% (second compound 10 µM, first compound 1 µM); 10% (second compound 10 µM, first compound 3.16 µM); 8.82% (second compound 10 µM, first compound 10 µM).
